Series [1] in a line: Acid dissociation constant of compound was determined (for carboxylic acid group). Type of series: ADME.
The nature of series [2]: Acid dissociation constant of compound was determined (for pyrrolinium group). Type of series: ADME.

These results are taken from ChEMBL document CHEMBL1151582, “The effect of pH on the solution structure of 1-pyrroline-2-carboxylic acid as revealed by NMR and electrospray mass spectroscopy” (Bioorg Med Chem Lett, 1993).

What is called pKa is the negative logarithm of the acid dissociation constant. A higher pKa goes with a group that holds its proton tightly. For `O=C(O)C1=NCCC1`, the pKa in series [1] worked out at 1.8; in series [2] it was 6.2.
